We go through one substance from patent publication US20030013650A1, “VR-OAC, an osomotically activated channel protein, nucleic acids encoding it, and uses thereof” (The Rockefeller University, priority 2000, published 2003).

For one assay, the system named is C. elegans mutant osm-9. The experiment in a line: Transgenic rescue of C. elegans mutant osm-9 (osmotic avoidance, nose touch, odorant avoidance). Particulars: expressed in ASH neurons (sra6 promotor) of osm-9 worms. Format: in vivo, Caenorhabditis elegans. Here is the method:
The coding region of the rat VR-OAC cDNA was cloned into the C. elegans expression vector pPD49.26 that contained the sra6 promotor. This promotor directs expression in the ASH and ASI neurons. Purified DNA was injected into the gonad of hermaphroditic worms, strain N2, together with the marker gene elt-2/green fluorescent protein (GFP) which directs expression of GFP in C. elegans intestinal cells. Transgenic offspring could be identified by GFP fluorescence, and VR-OAC transgenic lines of worms were generated. Likewise, several transgenic lines of worms were established and maintained on an osm-9 (ky-10 allele) genetic background. In these worms, an osmotic avoidance in response to hyperosmotic stimuli was clearly present, as was sensitivity to nose touch (FIGS. 15A and 15B). The avoidance reactions were assayed on single animals as previously described^34. Odorant avoidance in response to octanone was not present. […] In order to confirm that the observed rescue is mediated by the ASH neuron, both ASH neurons were laser ablated in osm-9/VR-OAC transgenic (tg) worms. This procedure completely abolished rescue (FIGS. 15A and 15B). In order to visualize subcellular localization of the VR-OACtg in the ASH neuron, GFP was tagged to the C-terminus of VR-OAC. The tagged protein could be localized to the cilia of the ASH neuron in the worm nose where fluorescence was stronger than in any other part of this neuron. Rescue was not impaired in VR-OAC/GFPtg osm-9 worms (FIGS. 15A and 15B).
In order to understand better the specificity of the observed rescue, VR-OACtg worms were crossed to C. elegans mutants which genetically define the alternate mechanosensory pathway. VR-OACtg worms of the following mutant lines were generated: ocr-2, odr-3, glr-1, osm-10 and double-mutants of the former with osm-9. These lines were tested for osmotic avoidance, nose touch and odorant avoidance. […] In another control experiment addressing the specificity of the observed rescue, we expressed rat VR1 under the control of the sra6 promotor in ASH neurons of wild type and osm-9 worms. No rescue was observed. However, in osm-9 as well as in wild type worms tg for VR1 there was a strong avoidance response to vanilloids which was absent in non-tg worms.
Next, we wanted to use the transgenic rescue of osm-9 by VR-OAC as an in-vivo model in order to better understand structure-function relationships of VR-OAC. Gross deletions were constructed lacking either the N-terminal intracellular domain (aminoacid [AA] 1-410 of VR-OAC), the C-terminal intracellular domain (AA 741-781 of VR-OAC) or both. Three lines of worms were established for each of the gross deletions. The line with the most pronounced rescue as an indication of highest expression level of tg was investigated more in depth. […] The N-terminus and the C-terminus thus appear dispensable for the response to osmotic and mechanical stimuli, and, most likely, for proper intracellular transport in the ASH neuron. In addition to these gross deletions, we wanted to learn more about the structure-function relationship of strategically positioned single amino acid exchanges in the pore-loop domain of VR-OAC. As for the gross deletions, three lines of worms were generated for each point mutation. […]

Another assay addresses T1, VR-OAC (Rattus norvegicus, UniProt Q9ERZ8, M680K).
T1 construct: The complete cDNAs of rat VR-OAC, chicken VR-OAC, and rat VR1 were subcloned into the eukaryotic expression vector pcDNA3.1; expressed in transfected cells; host or cells: CHO-K1 (stably or transiently transfected, pcDNA3.1)
The experiment in a line: Ca2+ imaging (fluo-4) of CHO cells transfected with VR-OAC or variants. In kind it is cell-based, rat and chicken. Conditions: tissue culture cells. From the text: To confirm that VR-OAC constitutes an ion channel and to determine the stimulus that gates it, we expressed the rat and chicken proteins in stably transfected Chinese hamster ovary (CHO) cells. Untransfected CHO cells and a line stably transfected with a VR1-expressing plasmid served as controls. We loaded VR-OAC-expressing cells with the Ca^2+ indicator fluo-4 AM and used conventional and confocal icroscopy to monitor changes in fluorescence, which reflected alterations in the ntracellular Ca^2+ concentration.
The complete cDNAs of rat VR-OAC, chicken VR-OAC, and rat VR1 were subcloned into the eukaryotic expression vector pcDNA3.1 (Invitrogen, Carlsbad, Calif.). CHO-K1 cells (ATCC, Manassas, Va.) were transfected with these vectors and selected with G418 (Life Technology, Gaithersburg, Md.). Stable clones that expressed the mRNAs were identified by Northern blot analysis and, for VR1, by response to ligand.
For Ca2+ imaging, cells were loaded for 30 min at room temperature in […] fluo-4 AM ester (Molecular Probes, Eugene, Oreg.) in isoosmotic Hille's saline solution (130 mM Na^+, 2.5 mM K^+, 2 mM Ca2+, 1 mM Mg2+, 138.5 mM Cl−, 20 mM D-glucose, and 10 mM HEPES at pH 7.3; Babcock et al., 1997) containing 2 mM probenecid. The cells were then washed and incubated for 15 min at 30° C. to promote deacetylation of internalized fluo-4 AM ester.
Confocal analysis was performed with an MRC-1024ES system (Bio-Rad, Hercules, Calif.) mounted on an inverted microscope (Zeiss Axiovert 135TV, Carl Zeiss, Jena, Germany). Confocal image series were collected using Lasersharp software (BioRad) running on a Poweredge 2300 computer (Dell Computer, Round Rock, Tex.). Images were also recorded with a cooled digital camera (Micromax, Princeton Instruments Inc., Princeton, N.J.) atop a Zeiss Axioplan microscope. These images were analyzed using IPLab software (Scanalytics Inc., Fairfax, Va.). Analysis of single-frame or single-cell integrated signal density was performed on Macintosh computers running NIH Image software (version 1.61; O'Neill et al., 1989).
Solutions with different osmotic strengths were created by adding water or mannitol to Hille's saline solution. Unless otherwise noted, the Ca2+ concentration of all solutions was held constant at 2 mM. The resultant osmolalities were verified with a vapor-pressure osmometer (Vapro 5520, Wescor Inc., Logan, Utah). The test solutions included a graded series of hypotonic solutions (with 220 mmol kg-1 the lowest osmolality), a hypertonic solution (330 mmol kg-1), isotonic solutions at 295 mmol kg-1 with graded concentrations of Na+ (with 50 mM the lowest concentration), and hypotonic solutions containing 100 μM, 250 μM, and 500 μM GdCl3. Ligands used for stimulation were resiniferatoxin (Sigma Chemicals, St. Louis, Mo.) at 0.2 μM and 5 μM and anandamide (Cayman Chemical, Ann Arbor, Mich.) at 5 μM and 25 μM. To test whether VR-OAC is directly gated by increases in temperature, we exposed dishes containing fluo-4-loaded cells to temperatures ranging from room temperature to 30° C., 37° C., 40° C., 45° C., 50° C., and 55° C. Images were acquired during the thermal stimulus series at intervals of 60 s for up to 10 min after the start of heating. A series of calibration experiments confirmed that this interval ensured proper thermal equilibration. A similar procedure was used to test the response to hypotonicity at various temperatures.

T1 sequence (Q9ERZ8 whole entry M680K): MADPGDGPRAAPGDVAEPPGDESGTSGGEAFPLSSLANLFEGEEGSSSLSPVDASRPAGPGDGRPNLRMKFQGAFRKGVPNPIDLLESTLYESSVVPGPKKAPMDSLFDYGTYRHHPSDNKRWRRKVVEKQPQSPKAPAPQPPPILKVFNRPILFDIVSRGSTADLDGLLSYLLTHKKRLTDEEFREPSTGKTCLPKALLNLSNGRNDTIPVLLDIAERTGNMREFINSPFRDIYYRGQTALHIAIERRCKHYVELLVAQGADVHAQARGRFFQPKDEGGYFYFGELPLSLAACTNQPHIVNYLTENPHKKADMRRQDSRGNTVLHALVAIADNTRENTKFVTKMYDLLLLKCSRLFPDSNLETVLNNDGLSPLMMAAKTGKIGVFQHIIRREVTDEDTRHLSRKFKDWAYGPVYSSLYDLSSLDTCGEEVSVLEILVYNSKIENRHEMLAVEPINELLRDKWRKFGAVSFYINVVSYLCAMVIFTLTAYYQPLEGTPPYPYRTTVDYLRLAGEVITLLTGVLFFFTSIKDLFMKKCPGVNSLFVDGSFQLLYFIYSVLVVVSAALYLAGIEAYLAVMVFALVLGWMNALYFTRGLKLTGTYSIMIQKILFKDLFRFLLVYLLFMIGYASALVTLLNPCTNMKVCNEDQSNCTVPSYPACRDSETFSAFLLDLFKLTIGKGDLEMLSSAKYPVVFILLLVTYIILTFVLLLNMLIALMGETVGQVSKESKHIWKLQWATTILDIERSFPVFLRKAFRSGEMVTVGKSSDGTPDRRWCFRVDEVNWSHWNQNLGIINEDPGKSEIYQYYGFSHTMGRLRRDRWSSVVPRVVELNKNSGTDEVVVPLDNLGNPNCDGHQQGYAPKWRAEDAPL

Take “M680K: VR-OAC mutation of Lysine for Methionine at amino acid 680”: the “rescue of lack of osmotic avoidance and lack of response to nose touch” value with C. elegans mutant osm-9 was “strikingly reduce rescue”. The “function in tissue culture cells” value with VR-OAC is on record as “totally lacked function”.
